Laboratory results: patent US5859067A, “Use of natural products and related synthetic compounds for the treatment of cardiovascular disease” (priority 1993, dated 1999)
pIC50: −log10 of the molar value. Where “and” joins values, the source holds several entries; their conditions need not be identical. Equal values may be shown once.

What was measured:
[1] = target: T1, human erythrocyte plasma membrane Ca^2+ -ATPase (Homo sapiens, UniProt P23634); assay: Ca^2+ -ATPase assay (microplate method), absence (-CaM) and presence (+CaM) of calmodulin (Table 1A); format: biochemical
T1 construct: Calmodulin-depleted erythrocyte membranes were prepared by continuous filtration through a hollow fibre; tissue New South Wales Red Cross Transfusion Service, Sydney; host or cells: human packed red blood cells (calmodulin-depleted erythrocyte membranes)
T1 sequence (P23634 1-1205 isoform P23634-6): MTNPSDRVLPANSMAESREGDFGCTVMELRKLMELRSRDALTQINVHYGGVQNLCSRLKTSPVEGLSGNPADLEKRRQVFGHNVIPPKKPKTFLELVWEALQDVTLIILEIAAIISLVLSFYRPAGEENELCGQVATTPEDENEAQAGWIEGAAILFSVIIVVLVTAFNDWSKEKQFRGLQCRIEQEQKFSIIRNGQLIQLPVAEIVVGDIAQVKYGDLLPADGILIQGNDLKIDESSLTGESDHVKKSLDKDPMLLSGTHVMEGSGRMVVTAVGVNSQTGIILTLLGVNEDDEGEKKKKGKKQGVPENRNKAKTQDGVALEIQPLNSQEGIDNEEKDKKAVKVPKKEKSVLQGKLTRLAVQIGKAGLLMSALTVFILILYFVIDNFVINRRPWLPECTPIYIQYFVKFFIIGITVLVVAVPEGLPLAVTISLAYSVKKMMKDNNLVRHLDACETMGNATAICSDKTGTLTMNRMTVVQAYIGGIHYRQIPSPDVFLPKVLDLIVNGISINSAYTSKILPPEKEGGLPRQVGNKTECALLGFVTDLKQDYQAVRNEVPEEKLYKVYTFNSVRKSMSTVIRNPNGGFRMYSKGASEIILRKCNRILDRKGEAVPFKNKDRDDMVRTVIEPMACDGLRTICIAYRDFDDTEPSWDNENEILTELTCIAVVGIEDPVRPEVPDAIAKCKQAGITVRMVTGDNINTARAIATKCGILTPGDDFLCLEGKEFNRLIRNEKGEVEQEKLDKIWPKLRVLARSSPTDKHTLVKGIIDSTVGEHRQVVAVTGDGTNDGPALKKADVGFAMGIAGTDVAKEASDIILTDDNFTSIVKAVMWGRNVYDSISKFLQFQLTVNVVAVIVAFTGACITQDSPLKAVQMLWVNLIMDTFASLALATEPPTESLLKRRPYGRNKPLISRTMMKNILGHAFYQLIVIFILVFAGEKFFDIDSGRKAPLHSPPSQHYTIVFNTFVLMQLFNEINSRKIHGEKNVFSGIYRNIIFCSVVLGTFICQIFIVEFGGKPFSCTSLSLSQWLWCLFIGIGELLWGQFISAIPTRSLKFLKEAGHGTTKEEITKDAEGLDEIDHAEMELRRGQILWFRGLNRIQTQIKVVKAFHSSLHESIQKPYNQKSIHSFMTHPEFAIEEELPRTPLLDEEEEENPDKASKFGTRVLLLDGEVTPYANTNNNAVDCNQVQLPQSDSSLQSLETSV
T1 sequence (P35613 140-385 partner limits assumed): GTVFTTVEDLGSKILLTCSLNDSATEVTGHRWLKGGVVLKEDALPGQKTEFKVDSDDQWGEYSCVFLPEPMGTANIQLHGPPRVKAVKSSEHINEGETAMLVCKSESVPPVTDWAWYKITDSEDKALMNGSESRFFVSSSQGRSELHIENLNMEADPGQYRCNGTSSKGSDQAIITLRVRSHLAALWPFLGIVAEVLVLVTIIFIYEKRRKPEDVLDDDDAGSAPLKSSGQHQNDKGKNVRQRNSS
Method: Natural and synthetic compounds of formula (I) were tested for their ability to influence human erythrocyte plasma membrane Ca^2+ -ATPase. The enzyme Ca^2+ -ATPase in the human red blood cell plasma membrane has previously been studied and its stimulation by calmodulin and activation by lipids and proteolysis and its primary structure have been published (see Carafoli E (1991) Calcium pump of the plasma membrane, Physiological Reviews 71, 129-153.
(§1) Calmodulin-depleted erythrocyte membranes were prepared by continuous filtration through a hollow fibre, Ashahi plasma separator as described by W S Price, B D Roufogalis, P W Kuchel (1989), A simple and inexpensive method for preparing erythrocyte membranes by filtration through a hollow-filter system, Anal. Biochem., 179, 190-193. Packed cells were obtained from the New South Wales Red Cross Transfusion Service, Sydney. The whole preparation was carried out at 4° C. 1 unit of packed red cells was washed 3 times with isotonic buffer, containing 130 mM KCl, 20 mM Tris-HCl (pH 7.4), and the cells were collected by centrifugation at 4,000 RPM. The cells were haemolysed by the buffer containing 1 mM EDTA, 10 mM Tris-Hcl (pH 7.4), 0.5 mM PMSF (phenylmethyl sulfonyl fluoride). The haemolyzate mixture was passed through the hollow fibre system until the membrane appeared white, and then washed with 10 mM potassium Hepes (pH 7.4). The membranes were collected by centrifugation at 10,000 RPM for 20 min, the membranes were resuspended in storage buffer containing 130 mM KCl, 2 mM dithiothreitol, 0.5 mM MgCl2, 20 mM potassium-Hepes (pH 7.5). The membranes with protein concentration of 1.5-5.4 mg/ml were stored at -80° C. until required.
Erythrocyte membranes were incubated at 37° C. for one hour in a total volume of 60 μl of 65 mM KCl, 50 mM HEPES (pH=7.4), 5 mM MgCl2, 50 μM CaCl2, 0.1 mM EGTA and in absence and presence of calmodulin (0.3 μM). Test compounds were dissolved in dimethyl sulfoxide DMSO and 2 μl was added to the assay mixture prior the addition of ATP. The final concentration of DMSO in the assay mixture was 3%. The reaction was started by adding 2 mM ATP (pH=7.4). After 1 hour of incubation, colouring agent (180 μl) was added and incubated at 37° C. for 1/2 hrs. The phosphate liberated to the assay medium was determined spectrometrically using a microplate reader at 750 nm. The activity of the Mg^2+ -ATPase (assayed in the absence of added CaCl2) was subtracted from the total activity assayed in the presence of Ca^2+.

[2] = system: brine shrimp (Artemia salina Leach); assay: Brine shrimp toxicity bioassay; format: in vivo; conditions: for LC50: Artemia salina, read-out: LC50 brine shrimp; for LC50 / toxicity to brine shrimp (in words): 24 hours
Method: There are many applications of the assay including analysis of toxic substances, anaesthetics, morphine-like substances and cocarcinogenicity of phorbol esters.
6 (K Hostettman, ed.), Academ Press, London, 1-32. DMSO solutions of the substances to be tested were added directly to the vials containing the brine shrimp. As the concentration of DMSO that we wished to use was higher than the recommended 1% v/v testing of the toxicity of the DMSO was therefore necessary.
Brine shrimp toxicity was assayed, except for some minor modifications, according to the method of McLaughlin et al as reported in Brine Shrimp: A convenient general bioassay for active plant constituents, B N Meyer, N R Ferrigni, J E Putman, L B Jacobsen, D E Nhols and J L McLaughlin. […] J L McLaughlin. […] 6 (K Hostettman, ed.), Academ Press, London, 1-32. Ten shrimp were added transferred to each of the vials and the volume adjusted to 4.9 mL. Each dose was performed in triplicate, including the control. In quick succession, the appropriate volume of additional DMSO for each dose, required to achieve a final concentration of 2%, was added before the appropriate volume of test solution. The vials were gently mixed and the time noted. After 24 hours, the number of survivors were counted and % mortality was determined.
The LC50 values were expressed in both μM and μg/mL.

[3] = target: T1, human erythrocyte plasma membrane Ca^2+ -ATPase; assay: Ca^2+ -ATPase assay (erythrocyte membranes; Table 1); format: biochemical; conditions: for inhibition at 100 µM: read-out: INHIBITION OF Ca^2+ -ATPase PERCENT (%); for pIC50: read-out: INHIBITION OF Ca^2+ -ATPase IC50
Method: Natural and synthetic compounds of formula (I) were tested for their ability to influence human erythrocyte plasma membrane Ca^2+ -ATPase.
as §1, with “Packed” for “Calmodulin-depleted erythrocyte membranes were prepared by continuous filtration through a hollow fibre, Ashahi plasma separator as described by W S Price, B D Roufogalis, P W Kuchel (1989), A simple and inexpensive method for preparing erythrocyte membranes by filtration through a hollow-filter system, Anal. Biochem., 179, 190-193. Packed”
Erythrocyte membranes (0.071-0.098 mg/ml) were incubated at 37° C. for one hour in a total volume of 0.4 ml of 65 mM KCl, 20 mM potassium-Hepes, 5 mM MgCl2, 50 μM CaCl2, 0.1 μm calmodulin, 0.1 mM EGTA. The reaction was started by adding 2 mM ATP(pH 7.4). […] The activity of the Mg^2+ -ATPase (assayed in the absence of added CaCl2) was subtracted from the total activity assayed in the presence of Ca^2+. […] A concentrated solution of the test substances was added to the reaction medium before adding ATP.

[4] = absence of calmodulin, read-out: IC50 (-CaM)
[5] = presence of calmodulin (0.3 μM), read-out: IC50 (+CaM)
[6] = IC50 (+CaM), presence of calmodulin (0.3 μM)
[7] = IC50 (-CaM), absence of calmodulin

Compound	pIC50 [1, 4]	pIC50 [1, 5]	LC50 [2]	other results
CCCCCCCCCC(c1ccccc1O)c1ccccc1O [1,1-bis(2-hydroxyphenyl)decane]	4.13	4.17	14 µM and 4.6 µg/mL	–
Oc1ccc(CCCCCCCCc2ccc(O)cc2O)c(O)c1 [1,8-bis(2,4-dihydroxyphenyl)octane]	4.30	4.32	74 µM and 24 µg/mL	–
Oc1ccccc1CCCCCCCCc1ccccc1O [1,8-bis(2-hydroxyphenyl)octane]	4.62	4.62	3 µM and 0.89 µg/mL	–
Oc1ccccc1CCCCCCCCCc1ccccc1O [1,9-bis(2-hydroxyphenyl)nonane]	4.87	4.85	–	–
Cc1c(O)ccc(CCCCCCCCCCc2ccc(O)c(C)c2O)c1O [1,10-bis(2,4-dihydroxy-3-methylphenyl)decane]	4.00	4.00	> 25 µM and > 9.7 µg/mL	–
Oc1ccc(CCCCCCCCCCc2ccc(O)cc2O)c(O)c1 [1,10-bis(2,4-dihydroxyphenyl)decane]	5.00	4.80	37 µM and 13 µg/mL	toxicity to brine shrimp (in words) [2]: relatively low toxicity; Ca^2+ -ATPase inhibitory activity (in words) [1]: most potent inhibitors of plasma Ca^2+ -ATPase among the synthesised substances
Oc1ccc2ccccc2c1CCCCCCCCCCc1c(O)ccc2ccccc12 [1,10-bis(2-hydroxy-1-naphthyl)decane]	4.04	4.05	> 25 µM and > 11 µg/mL	–
Cc1cccc(CCCCCCCCCCc2cccc(C)c2O)c1O [1,10-bis(2-hydroxy-3-methylphenyl)decane]	4.30	4.26	5.8 µM and 2.1 µg/mL	–
Cc1ccc(CCCCCCCCCCc2ccc(C)cc2O)c(O)c1 [1,10-bis(2-hydroxy-4-methylphenyl)decane]	4.54	4.54	14 µM and 5 µg/mL	toxicity to brine shrimp (in words) [2]: reduced toxicity
Cc1ccc(O)c(CCCCCCCCCCc2cc(C)ccc2O)c1 [1,10-bis(2-hydroxy-5-methylphenyl)decane]	4.66	4.69	–	–
CCCCCCCCCc1cc([N+](=O)[O-])cc(Br)c1O [2-bromo-4-nitro-6-nonylphenol]	–	–	–	pIC50 [1, 6]: 4.15
CCCCCCCCCc1ccc(C)cc1O [3-methyl-6-nonylphenol]	–	–	–	pIC50 [1, 6]: 4.22; pIC50 [1, 7]: 4.28
CCCCCCCCCc1cc(Br)cc([N+](=O)[O-])c1O [4-bromo-2-nitro-6-nonylphenol]	–	–	–	pIC50 [1, 6]: 4.18
CCCCCCCCCc1cc(Br)ccc1O [4-bromo-6-nonylphenol]	–	–	–	pIC50 [1, 6]: 4.26; pIC50 [1, 7]: 4.28
CCCCCCCCCc1cc(C)ccc1O [4-methyl-6-nonylphenol]	–	–	–	pIC50 [1, 6]: 4.12; pIC50 [1, 7]: 4.10
CCCCCCCCCc1cc([N+](=O)[O-])ccc1O [4-nitro-6-nonylphenol]	–	–	–	pIC50 [1, 6]: 4.15; pIC50 [1, 7]: 4.10
CCCCCCCCCc1cc(O)cc(O)c1C(=O)OCC [ethyl 2,4-dihydroxy-6-nonylbenzoate]	–	–	2.6 µM and 0.8 µg/mL	inhibition at 100 µM [3]: 73%; pIC50 [3]: 4.21
CCCCCCCCCCc1c(Br)c(O)c(Br)c(O)c1C(=O)OCC [ethyl 3,5-dibromo-2,4-dihydroxy-6-decylbenzoate]	–	–	780 nM and 0.37 µg/mL	inhibition at 100 µM [3]: 73%; pIC50 [3]: 4.16
CCCCCCCCCc1c(Br)c(O)c(Br)c(O)c1C(=O)OCC [ethyl 3,5-dibromo-2,4-dihydroxy-6-nonylbenzoate]	–	–	780 nM and 0.36 µg/mL	inhibition at 100 µM [3]: 95%; pIC50 [3]: 4.36
CCCCCCCCCCCCCc1cc(O)cc(O)c1 [grevillol, 5-tridecylresorcinol]	–	–	2.8 µM and 0.8 µg/mL	toxicity to brine shrimp (in words) [2]: moderately toxic; Ca^2+ -ATPase inhibitory activity (in words) [3]: weak; inhibition at 100 µM [3]: 44%; pIC50 [3]: 3.84
CC(C)=CCC/C(C)=C/CC/C(C)=C/Cc1c(O)cc(C)cc1O [grifolin, 2-E,E-farnesyl-5-methyl-resorcinol]	–	–	2.3 µM and 0.75 µg/mL	inhibition at 100 µM [3]: 100%; pIC50 [3]: 4.65
CC(C)=CCC/C(C)=C/CC/C(C)=C/Cc1c(C)cc(O)cc1O [neogrifolin, 4-E,E-farnesyl-5-methyl-resorcinol]	–	–	28 µM and 9 µg/mL	relative toxicity to brine shrimp ([2]; neogrifolin compared with grifolin): about ten-fold weaker; Ca^2+ -ATPase inhibitory activity (in words) [3]: most potent among the alkyl and alkenyl resorcinols tested; inhibition at 100 µM [3]: 100%; pIC50 [3]: 4.63

Now from value to compound, other results behind:

pIC50 [1, 4]	pIC50 [1, 5]	Compound	LC50 [2]	other results
3.40	3.40	2-bromo-6-nonylresorcinol	–	–
3.40	3.40	4-bromo-6-nonylresorcinol	–	–
4.29	4.32	Cc1ccc(CCCCCCCCCCc2ccc(C)c(O)c2)cc1O [1,10-bis(3-hydroxy-4-methylphenyl)decane]	11 µM and 3.9 µg/mL	–
4.52	4.49	Oc1cccc(CCCCCCCCCCc2cccc(O)c2)c1 [1,10-bis(3-hydroxyphenyl)decane]	3 µM and 0.98 µg/mL	–
4.00	4.03	Cc1cc(CCCCCCCCCCc2ccc(O)c(C)c2)ccc1O [1,10-bis(4-hydroxy-3-methylphenyl)decane]	4.2 µM and 1.5 µg/mL	–
4.60	4.66	Oc1ccc(CCCCCCCCCCCc2ccc(O)cc2O)c(O)c1 [1,11-bis(2,4-dihydroxyphenyl)undecane]	> 25 µM and > 9.3 µg/mL	–
4.34	–	C=C(C)C(CC=C(C)C)Cc1c(OC)cc(O)c2c1OC(c1c(O)cccc1O)CC2=O (stereo not drawn) [5,2',6'-trihydroxy-8-lavandulyl-7-methoxyflavanone]	–	–
4.58	–	C=C(C)C(CC=C(C)C)Cc1c(O)cc(O)c2c1OC(c1ccccc1O)CC2=O (stereo not drawn) [5,7,6'-trihydroxy-8-lavandulylflavanone]	–	–
